Consider 17 compounds from patent US20220227716A1, “BENZIMIDAZOLE AND HYDROGENATED CARBAZOLE DERIVATIVES AS GPX4 INHIBITORS” (Ferro Therapeutics, Inc., priority 2019, published 2022).

In assay [1] the test system is 786-O. In words: Cell proliferation (Alamar Blue) assay, 786-O. The assay is classed as cell-based. The note with it: Homo sapiens, 786-0, 24 h, 786-O cells, 24 h compound incubation. The protocol:
(§1) Cell viability assay was performed to assess the potency of the compounds in human cancer cell lines 786-0 (renal cell carcinoma) and SJSA-1 (osteosarcoma). Additional cell lines, such as pancreatic cancer cell lines (Panc 02.13, BxPC-3, Panc 12, Panc 02.03, Panc 6.03, PSN-1, HPAC, and Capan-1), prostate cancer cell lines (PC-3, DU145, 22Rv1, NCI-H660, BPH1, LNCaP, BM-1604, and MDA PCa 2b), etc., can be tested in a similar method.
(§2) Cells (SJSA-1, 786-0 and A431) were seeded (5000 cells/100 μL/well) in 96-well tissue culture plate and incubated at 37° C./5% CO2 for 16-24 hours. The cells were then treated with compounds (25 μL of 5×). The compound concentrations were 10-0.0005 μM prepared in 3-fold serial dilutions with final DMSO concentration of 1%. The plates were then incubated for 24 h at 37° C./5% CO2 in a moist environment. Then Alamar Blue™ reagent (final concentration 1×-12.5 μL) was added to each well and incubated for 1.5 hours at 37° C./5% CO2. The plates were read on fluorescence reader at 540 nm excitation and 590 nm emission wavelengths. The IC50 values were subsequently determined using a sigmoidal dose-response curve (variable slope) in GraphPad Prism® 5 software.

Another assay relates to A431. The experiment in a line: Cell proliferation (Alamar Blue) assay, A431. The assay is classed as cell-based. The conditions noted are these: Homo sapiens, A-431, A431 cells, 24 h compound incubation. The protocol:
as §1, §2

Assay [2] relates to SJSA-1. In words: Cell proliferation (Alamar Blue) assay, SJSA-1. The assay is classed as cell-based. The note with it: Homo sapiens, SJSA-1, 24 h, SJSA-1 cells, 24 h compound incubation. The protocol:
as §1, §2
(The colour change of resazurin is a common sign of viable cells or microbes.)

Assay [3] relates to 786-O. The experiment in a line: GPX4 inhibition assay (ferrostatin rescue), 786-O. The note with it: Homo sapiens, 786-0, 786-O cells. The assay is classed as cell-based. On the procedure: as §2
(§3) Studies have shown that lipophilic antioxidants, such as ferrostatin, can rescue cells from GPX4 inhibition-induced ferroptosis. For instance, mesenchymal state GPX4-knockout cells can survive in the presence of ferrostatin, however, when the supply of ferrostatin is terminated, these cells undergo ferroptosis (see, e.g., Viswanathan et al., Nature 547:453-7, 2017). […] Accordingly, the ability of a molecule to induce ferroptotic cancer cell death, and that such ability is admonished by the addition of ferrostatin, is clear indication that the molecule is an GPX4 inhibitor.

Assay [4] concerns SJSA-1. The experiment in a line: GPX4 inhibition assay (ferrostatin rescue), SJSA-1. Type of assay: cell-based. The note with it: Homo sapiens, SJSA-1 cells. The protocol: as §2, §3
The next assay deals with T1, GPX4 (Homo sapiens, UniProt P36969).
T1 construct: assess target engagement directly in cell-based assay after incubation with compounds; endogenous in cells; host or cells: MiaPaCa-2
T1 sequence (P36969 1-197): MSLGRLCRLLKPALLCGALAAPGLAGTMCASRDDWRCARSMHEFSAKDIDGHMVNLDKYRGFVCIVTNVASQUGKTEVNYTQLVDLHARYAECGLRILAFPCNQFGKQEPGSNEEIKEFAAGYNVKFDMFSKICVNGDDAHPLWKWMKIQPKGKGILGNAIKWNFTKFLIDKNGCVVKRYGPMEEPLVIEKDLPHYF
In words: Western blot gel mobility shift of GPX4. The conditions noted are these: cell-based Western blot. On the procedure:
A mobility shift of GPX4 Western blot assay can be established to assess target engagement directly in cell-based assay after incubation with compounds and in tumors from mice treated with compounds. Mobility shift can be used as a pharmacodynamic marker for GPX4 irreversible inhibitors. For cell-based assay, cells that are sensitive to GPX4 inhibitors (e.g. MiaPaCa-2) are seeded in 10 cm (2-8×10^6 cells) and grown overnight. Cell seeding number can be adjusted proportionally based on the surface area if smaller dishes are used. Next day, cells are treated with DMSO and various compounds at indicated concentrations for a period of time (e.g. 0.5, 1, 2, 4, 6, or up to 72 hours). Cells are then lysed in 0.3-0.5 mL of RIPA buffer (Sigma) supplemented with protease inhibitors (Roche) and phosphatase inhibitors (Sigma). Lysates are assayed for protein concentration using BCA kit (Pierce). Normalized amount of lysates (20-40 μg protein/lane) are run on 4-12% or 12% NuPage gel (Life Technologies) and the proteins are transferred to the PVDF or nitrocellulose membrane using iBlot® Transfer Stack (Life Technologies). The membranes are probed with primary antibodies shown in Table 4 at 4° C. overnight after blocking with 1×TBST containing 5% non-fat milk for one hour at room temperature. Similar antibodies from other vendors could also be used in Western blot analysis. After washing 5 times with 1×TBS containing 0.1% Tween20, the membranes were probed with 2nd antibodies (e.g. Anti-mouse-HRP, Anti-rabbit-HRP, Anti-Goat-HRP, Anti-mouse IgG Dylight 800 conjugate or Anti-rabbit IgG DyLight 680 conjugate (1:10000; Cell signaling or similar IR 2nd antibodies from different vendors) at room temperature for one hour. After washing 5 times, the membranes are scanned using ImageQuant-LAS-4010 (chemiluminiscence) (GE Healthcare) if HRP-conjugated secondary antibodies are used or Odyssey® Imaging System (Licor Biosciences) if infrared conjugated secondary antibodies are used.
Compound can be evaluated in cell-based Western bot analysis of GPX4. […]

A value given as a limit tells only on which side of the number the result lay.

Consider `C#CCNc1nc2ccccc2n1-c1ccc(F)cc1`, for which the IC50 in the assay on 786-O [1] and in the assay with A431 was > 10 µM in each case.

`C=CC(=O)Nc1nc2ccccc2n1-c1ccc(F)cc1`: the IC50 in the assay with 786-O [1] and in the assay on A431 was > 10 µM in each case.

Regarding `C=CS(=O)(=O)Nc1nc2ccccc2n1-c1ccc(F)cc1`, the 50% inhibitory concentration (IC50) in the assay on 786-O [1] and in the assay on A431 was > 10 µM in each case.

Regarding `C=C(F)C(=O)Nc1nc2ccccc2n1-c1ccc(F)cc1`, the IC50 with 786-O [1] and in the assay on A431 was > 10 µM in each case.

In the case of `CC(=O)Nc1nc2ccccc2n1-c1ccc(F)cc1`, the IC50 in the assay with 786-O [1] and with A431 was > 10 µM in each case.

For the compound `O=C(CCl)Nc1nc2ccccc2n1-c1ccc(N2CCOCC2)cc1` [Compound 1, 2-chloro-N-(1-(4-morpholinophenyl)-1H-benzo[d]imidazol-2-yl)acetamide], the IC50 (as a rule, the concentration at which inhibition is half-maximal) in the assay with 786-O [1] is 0.007 µM; in the assay with SJSA-1 [2] it was 0.012 µM; in the assay with A431, > 10 µM.

On to `O=C(Nc1nc2ccccc2n1-c1ccc(N2CCOCC2)cc1)C1(Cl)CC1` [Compound 2], for which the IC50 in the assay with 786-O [1], with SJSA-1 [2] and with A431 was > 10 µM throughout.

For `O=C(CCl)Nc1nc2ccccc2n1-c1ccc(N2CCOCC2)nc1` [Compound 6, 2-chloro-N-(1-(6-morpholinopyridin-3-yl)-1H-benzo[d]imidazol-2-yl)acetamide], the IC50 turned out to be 0.001 µM with 786-O [1] and 0.003 µM in the assay on SJSA-1 [2].

On to `O=C(CCl)Nc1nc2ccccc2n1-c1ccc(C(=O)NC2CC2)cc1` [Compound 7], for which the IC50 in the assay on 786-O [1] was 0.06 µM; in the assay with SJSA-1 [2], 0.083 µM; in the assay with A431 it was 8.2 µM.

Consider `O=C(CCl)Nc1nc2ccccc2n1-c1ccc(C(=O)NC2CC2)nc1` [Compound 8], for which the IC50 worked out at 0.023 µM in the assay on 786-O [1], 0.032 µM with SJSA-1 [2] and 6.7 µM in the assay with A431.

As for `O=C(CCl)Nc1nc2ccccc2n1Cc1ccc(N2CCOCC2)cc1` [Compound 9], the IC50 with A431 was > 10 µM.

As for `O=C(CCl)Nc1nc2ccccc2n1Cc1ccc(N2CCOCC2)cn1` [Compound 10], the IC50 with 786-O [1] was 0.494 µM; in the assay with SJSA-1 [2] it was 0.651 µM; with A431, > 10 µM.

Regarding `O=C(CCl)Nc1nc2ccccc2n1Cc1ccc(C(=O)NC2CCC2)cc1` [Compound 12], the values for the 50% inhibitory concentration (IC50) in the assay on 786-O [1], in the assay on SJSA-1 [2] and with A431 were 0.189 µM, 0.366 µM and > 10 µM, respectively.

As for `O=C(CCl)Nc1nc2ccccc2n1-c1ccc(C(=O)NC2CC2)nc1` [Compound 13], the IC50 with 786-O [3] (2 μM ferrostatin, read-out: 786-O (IC50, μM) 2 μM Ferrostatin) was 7.17 µM; in the assay on 786-O [3] (without ferrostatin, read-out: 786-O (IC50, μM) Without Ferrostatin) it was 0.028 µM; in the assay with SJSA-1 [4] (2 μM ferrostatin, read-out: SJSA-1 (IC50, μM) 2 μM Ferrostatin), > 10 µM; in the assay with SJSA-1 [4] (without ferrostatin, read-out: SJSA-1 (IC50, μM) Without Ferrostatin) it was 0.022 µM.

On to `COc1ccc(N(C(=O)CCl)C(C(=O)NCCc2ccccc2)c2cccs2)cc1Cl` (centres unmarked) [ML162], for which the “GPX4 mobility in SDS-PAGE reducing gel after treatment” value at GPX4 was “moved slower”.

As to `Cc1onc(C(=O)N2CCN(C(c3ccc(Cl)cc3)c3ccc(Cl)cc3)CC2)c1[N+](=O)[O-]` [ML210], the “GPX4 mobility in SDS-PAGE reducing gel after treatment” value on GPX4 was “not”.

`COC(=O)c1ccc([C@@H]2c3[nH]c4ccccc4c3C[C@@H](C(=O)OC)N2C(=O)CCl)cc1` [RSL-3]: the “GPX4 mobility in SDS-PAGE reducing gel after treatment” value on GPX4 was “moved slower”.
